The target in this test is T1, human cloned CHRM3 receptor (Homo sapiens, UniProt P20309).
T1 construct: expressed in transfected cells; host or cells: CHO-K1 (M3_CHO)
The experiment in a line: CHRM3 Ca++ Flux Assay (M3_CHO cells, agonist mode). The settings on record: for Emax: Percent Activity (PA) measured to EC100 of Carbachol, read-out: M3 FDSS PA %; for EC50: agonist mode, geometric mean if tested more than once, read-out: M3 FDSS EC50. It is filed as cell-based. Put shortly:
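Agonist-mode calcium mobilisation: compounds, 11 concentrations in triplicate, applied to stable M3_CHO or M5_CHO cells loaded with Ca++ dye, fluorescence followed 3 min. Efficacy expressed against carbachol EC100; EC curves by four-parameter nonlinear regression, geometric mean across independent runs.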

As usually defined, the EC50 is the concentration giving half of the maximal effect.

T1 sequence (P20309 whole entry): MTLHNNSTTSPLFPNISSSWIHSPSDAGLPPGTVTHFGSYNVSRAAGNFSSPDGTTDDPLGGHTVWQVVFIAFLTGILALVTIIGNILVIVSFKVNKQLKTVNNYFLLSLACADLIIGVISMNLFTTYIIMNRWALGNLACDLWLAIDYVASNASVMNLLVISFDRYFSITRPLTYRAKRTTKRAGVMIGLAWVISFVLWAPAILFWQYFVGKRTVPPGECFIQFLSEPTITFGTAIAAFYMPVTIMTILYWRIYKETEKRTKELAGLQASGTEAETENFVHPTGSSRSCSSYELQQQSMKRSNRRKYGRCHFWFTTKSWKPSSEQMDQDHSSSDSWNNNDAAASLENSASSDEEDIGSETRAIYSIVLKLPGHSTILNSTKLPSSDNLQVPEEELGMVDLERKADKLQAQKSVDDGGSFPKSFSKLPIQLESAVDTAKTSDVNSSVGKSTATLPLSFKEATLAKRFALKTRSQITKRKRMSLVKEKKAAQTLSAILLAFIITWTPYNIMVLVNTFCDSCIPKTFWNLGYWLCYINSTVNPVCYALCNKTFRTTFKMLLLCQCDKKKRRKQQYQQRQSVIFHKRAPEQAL

Regarding `Fc1ccc(OC2CC3(COC3)C2)c(C2CCN([C@@H]3COC4(C3)CN(c3nnco3)C4)CC2)c1` [Example 2L, (S)-7-(4-(2-((2-oxaspiro[3.3]heptan-6-yl)oxy)-5-fluorophenyl)piperidin-1-yl)-2-(1,3,4-oxadiazol-2-yl)-5-oxa-2-azaspiro[3.4]octane], the Emax is 0% and the EC50 is above 25 µM.

Consider `Fc1ccc(OCC2COC2)c(C2CCN([C@@H]3COC4(C3)CN(c3nnco3)C4)CC2)c1` [Example 2H, (S)-7-(4-(5-fluoro-2-(oxetan-3-ylmethoxy)phenyl)piperidin-1-yl)-2-(1,3,4-oxadiazol-2-yl)-5-oxa-2-azaspiro[3.4]octane], for which the Emax came to 0% and the EC50 was above 25 µM.

Regarding `Fc1ccc(OCC2COC2)c(C2CCN([C@@H]3COC4(C3)CN(c3nncs3)C4)CC2)c1` [Example 2A, (S)-7-(4-(5-fluoro-2-(oxetan-3-ylmethoxy)phenyl)piperidin-1-yl)-2-(1,3,4-thiadiazol-2-yl)-5-oxa-2-azaspiro[3.4]octane], the Emax was 0% and the EC50 was above 25 µM.

On to `CCc1nnc(COc2ccc(F)cc2C2CCN([C@@H]3COC4(C3)CN(c3nnco3)C4)CC2)s1` [Example 2T, (S)-7-(4-(2-((5-ethyl-1,3,4-thiadiazol-2-yl)methoxy)-5-fluorophenyl)piperidin-1-yl)-2-(1,3,4-oxadiazol-2-yl)-5-oxa-2-azaspiro[3.4]octane], for which the Emax is 0% and the EC50 is above 25 µM.

On to `Cc1nnc(COc2ccc(F)cc2C2CCN([C@@H]3COC4(C3)CN(c3nnco3)C4)CC2)o1` [Example 2F, (S)-7-(4-(5-fluoro-2-((5-methyl-1,3,4-oxadiazol-2-yl)methoxy)phenyl)piperidin-1-yl)-2-(1,3,4-oxadiazol-2-yl)-5-oxa-2-azaspiro[3.4]octane], for which the Emax is 0% and the EC50 was above 25 µM.

In the case of `CC(C)(O)COc1ccccc1C1CCN([C@@H]2COC3(C2)CN(c2ncns2)C3)CC1` [Example 5Y, (S)-1-(2-(1-(2-(1,2,4-thiadiazol-5-yl)-5-oxa-2-azaspiro[3.4]octan-7-yl)piperidin-4-yl)phenoxy)-2-methylpropan-2-ol], the Emax stood at 0% and the EC50 was above 25 µM.

Turning to `c1ccc(C2CCN([C@@H]3COC4(C3)CN(c3nnco3)C4)CC2)c(O[C@@H]2CCOC2)c1` [Example 1O, (S)-2-(1,3,4-oxadiazol-2-yl)-7-(4-(2-(((R)-tetrahydrofuran-3-yl)oxy)phenyl)piperidin-1-yl)-5-oxa-2-azaspiro[3.4]octane], the Emax worked out at 0% and the EC50 is above 25 µM.

For `c1ccc(C2CCN([C@@H]3COC4(C3)CN(c3nnco3)C4)CC2)c(OC2COC2)c1` [Example 1P, (S)-2-(1,3,4-oxadiazol-2-yl)-7-(4-(2-(oxetan-3-yloxy)phenyl)piperidin-1-yl)-5-oxa-2-azaspiro[3.4]octane], the Emax stood at 0% and the EC50 is above 25 µM.

Take `OC1(COc2ccc(F)cc2C2CCN([C@@H]3COC4(C3)CN(c3nnco3)C4)CC2)COC1` [Example 2U, (S)-3-((2-(1-(2-(1,3,4-oxadiazol-2-yl)-5-oxa-2-azaspiro[3.4]octan-7-yl)piperidin-4-yl)-4-fluorophenoxy)methyl)oxetan-3-ol]: the Emax was determined as 0% and the EC50 was above 25 µM.

`CC(C)(O)CCOc1cc(F)ccc1C1CCN([C@@H]2COC3(C2)CN(c2nnco2)C3)CC1` [Example 1T, (S)-4-(2-(1-(2-(1,3,4-oxadiazol-2-yl)-5-oxa-2-azaspiro[3.4]octan-7-yl)piperidin-4-yl)-5-fluorophenoxy)-2-methylbutan-2-ol]: the Emax is 0% and the concentration giving a half-maximal response (EC50) is above 25 µM.

For the compound `Cc1nnc(COc2ccc(F)cc2C2CCN([C@@H]3COC4(C3)CN(c3nnco3)C4)CC2)s1` [Example 2E, (S)-7-(4-(5-fluoro-2-((5-methyl-1,3,4-thiadiazol-2-yl)methoxy)phenyl)piperidin-1-yl)-2-(1,3,4-oxadiazol-2-yl)-5-oxa-2-azaspiro[3.4]octane], the Emax was found to be 0% and the 50% effective concentration (EC50) is above 25 µM.

On to `Fc1ccc(OC[C@H]2CCOC2)c(C2CCN([C@@H]3COC4(C3)CN(c3nnco3)C4)CC2)c1` [Example 1I, (S)-7-(4-(5-fluoro-2-(((S)-tetrahydrofuran-3-yl)methoxy)phenyl)piperidin-1-yl)-2-(1,3,4-oxadiazol-2-yl)-5-oxa-2-azaspiro[3.4]octane], for which the Emax was 0% and the concentration giving a half-maximal response (EC50) is above 25 µM.

Regarding `Fc1ccc(OC2CCOCC2)c(C2CCN([C@@H]3COC4(C3)CN(c3ncon3)C4)CC2)c1` [Example 6A, (S)-7-(4-(5-fluoro-2-((tetrahydro-2H-pyran-4-yl)oxy)phenyl)piperidin-1-yl)-2-(1,2,4-oxadiazol-3-yl)-5-oxa-2-azaspiro[3.4]octane], the Emax came to 0% and the half-maximal effective concentration (EC50) is above 25 µM.

Turning to `CC1(COc2ccc(F)cc2C2CCN([C@@H]3COC4(C3)CN(c3nnco3)C4)CC2)COC1` [Example 2K, (S)-7-(4-(5-fluoro-2-((3-methyloxetan-3-yl)methoxy)phenyl)piperidin-1-yl)-2-(1,3,4-oxadiazol-2-yl)-5-oxa-2-azaspiro[3.4]octane], the Emax came to 0% and the EC50 was above 25 µM.

As for `COc1cc(F)ccc1C1CCN([C@@H]2COC3(C2)CN(c2nnco2)C3)CC1` [Example 1S, (S)-7-(4-(4-fluoro-2-methoxyphenyl)piperidin-1-yl)-2-(1,3,4-oxadiazol-2-yl)-5-oxa-2-azaspiro[3.4]octane], the Emax turned out to be 0% and the EC50 is above 25 µM.

Source of the values: patent US11485742B2, “2-azaspiro[3.4]octane derivatives as M4 agonists” (NOVARTIS AG, priority 2019, dated 2022).
